Data: PubChem BioAssay (NCI)
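A five-concentration, 48-hour dose response in 96-well plates underlies each endpoint, interpolated linearly between surrounding concentrations. At the GI50, growth is halved. TGI: concentration producing complete growth inhibition.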

Assays:
Assay in all cases: NCI tumour cell line growth inhibition, 48 h
A498 renal = system: A498 renal
A549 NSCLC = system: A549 NSCLC
CAKI-1 renal = system: CAKI-1 renal
CCRF-CEM leukemia = system: CCRF-CEM leukemia
COLO 205 colon = system: COLO 205 colon
DLD-1 colon = system: DLD-1 colon
DMS 114 small cell lung = system: DMS 114 small cell lung
DMS 273 small cell lung = system: DMS 273 small cell lung
EKVX NSCLC = system: EKVX NSCLC
HCC-2998 colon = system: HCC-2998 colon
HCT-116 colon = system: HCT-116 colon
HCT-15 colon = system: HCT-15 colon
HL-60(TB) leukemia = system: HL-60(TB) leukemia
HOP-18 NSCLC = system: HOP-18 NSCLC
HOP-62 NSCLC = system: HOP-62 NSCLC
HOP-92 NSCLC = system: HOP-92 NSCLC
HT29 colon = system: HT29 colon
IGROV1 ovarian = system: IGROV1 ovarian
K-562 leukemia = system: K-562 leukemia
KM12 colon = system: KM12 colon
KM20L2 colon = system: KM20L2 colon
LOX IMVI melanoma = system: LOX IMVI melanoma
M19-MEL melanoma = system: M19-MEL melanoma
MALME-3M melanoma = system: MALME-3M melanoma
MCF7 breast = system: MCF7 breast
MOLT-4 leukemia = system: MOLT-4 leukemia
NCI-H226 lung = system: NCI-H226 lung
NCI-H23 lung = system: NCI-H23 lung
NCI-H460 lung = system: NCI-H460 lung
NCI-H522 lung = system: NCI-H522 lung
NCI/ADR-RES ovarian = system: NCI/ADR-RES ovarian
OVCAR-3 ovarian = system: OVCAR-3 ovarian
OVCAR-4 ovarian = system: OVCAR-4 ovarian
OVCAR-5 ovarian = system: OVCAR-5 ovarian
OVCAR-8 ovarian = system: OVCAR-8 ovarian
P388 leukemia = system: P388 leukemia
P388/ADR leukemia = system: P388/ADR leukemia
RPMI-8226 leukemia = system: RPMI-8226 leukemia
RXF 393 renal = system: RXF 393 renal
SF-268 CNS = system: SF-268 CNS
SF-295 CNS = system: SF-295 CNS
SF-539 CNS = system: SF-539 CNS
SK-MEL-2 melanoma = system: SK-MEL-2 melanoma
SK-MEL-28 melanoma = system: SK-MEL-28 melanoma
SK-MEL-5 melanoma = system: SK-MEL-5 melanoma
SK-OV-3 ovarian = system: SK-OV-3 ovarian
SN12C renal = system: SN12C renal
SN12K1 renal = system: SN12K1 renal
SNB-19 CNS = system: SNB-19 CNS
SNB-75 CNS = system: SNB-75 CNS
SW-620 colon = system: SW-620 colon
U251 CNS = system: U251 CNS
UACC-257 melanoma = system: UACC-257 melanoma
UACC-62 melanoma = system: UACC-62 melanoma
UO-31 renal = system: UO-31 renal
XF 498 CNS = system: XF 498 CNS
786-0 renal = system: 786-0 renal
ACHN renal = system: ACHN renal
LXFL 529 NSCLC = system: LXFL 529 NSCLC
M14 melanoma = system: M14 melanoma
RXF-631 renal = system: RXF-631 renal
SR leukemia = system: SR leukemia
TK-10 renal = system: TK-10 renal
SNB-78 CNS = system: SNB-78 CNS

Structure (SMILES): COc1cccc2c1C(=O)c1c(O)c3c(c(O)c1C2=O)C[C@@](O)(C(=O)CN1CCOCC1)C[C@@H]3OC1CC(N)C(O)C(C)O1 (stereo not given in full)
- TGI (A498 renal): 31.1 µM
- TGI (A549 NSCLC): 48.6 µM
- GI50 (CAKI-1 renal): 2.61 µM
- TGI (CAKI-1 renal): > 53.8 µM
- GI50 (CCRF-CEM leukemia): 0.964 µM
- TGI (CCRF-CEM leukemia): > 23.1 µM
- TGI (COLO 205 colon): 24.1 µM
- TGI (DLD-1 colon): > 74.4 µM
- TGI (DMS 114 small cell lung): 21.8 µM
- TGI (DMS 273 small cell lung): 20.5 µM
- TGI (EKVX NSCLC): 55.9 µM
- TGI (HCC-2998 colon): 23.3 µM
- TGI (HCT-116 colon): > 100 µM
- TGI (HCT-15 colon): 77.6 µM
- TGI (HL-60(TB) leukemia): 5.19 µM
- GI50 (HOP-18 NSCLC): 1.43 µM
- TGI (HOP-18 NSCLC): 22 µM
- TGI (HOP-62 NSCLC): 14.2 µM
- GI50 (HOP-92 NSCLC): 5.27 µM
- TGI (HOP-92 NSCLC): 33.9 µM
- GI50 (HT29 colon): 3.87 µM
- TGI (IGROV1 ovarian): > 90.6 µM
- TGI (K-562 leukemia): 61.7 µM
- TGI (KM12 colon): 51.5 µM
- TGI (KM20L2 colon): 71.5 µM
- TGI (LOX IMVI melanoma): 45.3 µM
- TGI (M19-MEL melanoma): 18.1 µM
- TGI (MALME-3M melanoma): 14.2 µM
- TGI (MCF7 breast): > 100 µM
- GI50 (MOLT-4 leukemia): 0.234 µM
- TGI (MOLT-4 leukemia): 1.15 µM
- TGI (NCI-H226 lung): 8.78 µM
- TGI (NCI-H23 lung): 20.9 µM
- TGI (NCI-H460 lung): > 69.9 µM
- TGI (NCI-H522 lung): 15.4 µM
- TGI (NCI/ADR-RES ovarian): > 100 µM
- GI50 (OVCAR-3 ovarian): 10.6 µM
- TGI (OVCAR-3 ovarian): 57.4 µM
- TGI (OVCAR-4 ovarian): 69.6 µM
- TGI (OVCAR-5 ovarian): 57.6 µM
- TGI (OVCAR-8 ovarian): 89.5 µM
- TGI (P388 leukemia): 2.29 µM
- TGI (P388/ADR leukemia): 71.7 µM
- TGI (RPMI-8226 leukemia): 43.2 µM
- TGI (RXF 393 renal): 23.9 µM
- TGI (SF-268 CNS): 51.3 µM
- TGI (SF-295 CNS): 39.3 µM
- TGI (SF-539 CNS): 23.6 µM
- TGI (SK-MEL-2 melanoma): 22.7 µM
- TGI (SK-MEL-28 melanoma): 29.1 µM
- TGI (SK-MEL-5 melanoma): 15.7 µM
- TGI (SK-OV-3 ovarian): > 100 µM
- TGI (SN12C renal): > 100 µM
- TGI (SN12K1 renal): 30.1 µM
- TGI (SNB-19 CNS): > 100 µM
- TGI (SNB-75 CNS): 22.4 µM
- TGI (SW-620 colon): > 78.7 µM
- TGI (U251 CNS): > 100 µM
- GI50 (UACC-257 melanoma): 11.3 µM
- TGI (UACC-62 melanoma): 15.7 µM
- TGI (UO-31 renal): 59.6 µM
- TGI (XF 498 CNS): 8.33 µM

Structure (SMILES): O=C1OC(c2ccccc2)(c2ccccc2)c2ccc3ccc(F)cc3c21
- TGI (786-0 renal): > 100 µM
- TGI (A498 renal): > 100 µM
- TGI (A549 NSCLC): > 100 µM
- TGI (ACHN renal): > 100 µM
- TGI (CAKI-1 renal): > 100 µM
- TGI (CCRF-CEM leukemia): > 100 µM
- TGI (COLO 205 colon): > 100 µM
- TGI (DLD-1 colon): > 100 µM
- TGI (DMS 114 small cell lung): > 100 µM
- TGI (DMS 273 small cell lung): > 100 µM
- TGI (EKVX NSCLC): > 100 µM
- TGI (HCC-2998 colon): > 100 µM
- TGI (HCT-116 colon): > 100 µM
- TGI (HCT-15 colon): > 100 µM
- TGI (HL-60(TB) leukemia): > 100 µM
- TGI (HOP-62 NSCLC): > 100 µM
- TGI (HOP-92 NSCLC): > 100 µM
- TGI (HT29 colon): > 100 µM
- TGI (IGROV1 ovarian): > 100 µM
- TGI (K-562 leukemia): > 100 µM
- TGI (KM12 colon): > 100 µM
- TGI (KM20L2 colon): > 100 µM
- TGI (LOX IMVI melanoma): > 100 µM
- TGI (LXFL 529 NSCLC): > 100 µM
- TGI (M14 melanoma): > 100 µM
- TGI (M19-MEL melanoma): > 100 µM
- TGI (MALME-3M melanoma): > 100 µM
- TGI (MOLT-4 leukemia): > 100 µM
- TGI (NCI-H226 lung): > 100 µM
- TGI (NCI-H23 lung): > 100 µM
- TGI (NCI-H460 lung): > 100 µM
- TGI (NCI-H522 lung): > 100 µM
- TGI (OVCAR-3 ovarian): > 100 µM
- TGI (OVCAR-4 ovarian): > 100 µM
- TGI (OVCAR-5 ovarian): > 100 µM
- TGI (OVCAR-8 ovarian): > 100 µM
- TGI (RPMI-8226 leukemia): > 100 µM
- TGI (RXF 393 renal): > 100 µM
- TGI (RXF-631 renal): > 100 µM
- TGI (SF-268 CNS): > 100 µM
- TGI (SF-295 CNS): > 100 µM
- TGI (SF-539 CNS): > 100 µM
- TGI (SK-MEL-2 melanoma): > 100 µM
- TGI (SK-MEL-28 melanoma): > 100 µM
- TGI (SK-MEL-5 melanoma): > 100 µM
- TGI (SK-OV-3 ovarian): > 100 µM
- TGI (SN12C renal): > 100 µM
- TGI (SNB-19 CNS): > 100 µM
- TGI (SNB-75 CNS): > 100 µM
- TGI (SR leukemia): > 100 µM
- TGI (SW-620 colon): > 100 µM
- TGI (TK-10 renal): > 100 µM
- TGI (U251 CNS): > 100 µM
- TGI (UACC-257 melanoma): > 100 µM
- TGI (UACC-62 melanoma): > 100 µM
- TGI (UO-31 renal): > 100 µM
- TGI (XF 498 CNS): > 100 µM

Structure (SMILES): O=c1/c(=C/c2c(O)ccc3ccccc23)sc2nc3ccccc3n12
- TGI (786-0 renal): > 100 µM
- TGI (A498 renal): > 100 µM
- TGI (A549 NSCLC): > 100 µM
- TGI (ACHN renal): > 100 µM
- TGI (CAKI-1 renal): > 100 µM
- TGI (CCRF-CEM leukemia): > 100 µM
- TGI (COLO 205 colon): > 100 µM
- TGI (DLD-1 colon): > 100 µM
- TGI (DMS 114 small cell lung): > 100 µM
- TGI (DMS 273 small cell lung): > 100 µM
- TGI (EKVX NSCLC): > 100 µM
- TGI (HCC-2998 colon): > 100 µM
- TGI (HCT-116 colon): > 100 µM
- TGI (HCT-15 colon): > 100 µM
- TGI (HL-60(TB) leukemia): > 100 µM
- TGI (HOP-18 NSCLC): > 100 µM
- TGI (HOP-62 NSCLC): > 100 µM
- TGI (HOP-92 NSCLC): > 100 µM
- TGI (HT29 colon): > 100 µM
- TGI (IGROV1 ovarian): > 100 µM
- TGI (K-562 leukemia): > 100 µM
- TGI (KM12 colon): > 100 µM
- TGI (KM20L2 colon): > 100 µM
- TGI (LOX IMVI melanoma): > 100 µM
- TGI (LXFL 529 NSCLC): > 100 µM
- TGI (M14 melanoma): > 100 µM
- TGI (M19-MEL melanoma): > 100 µM
- TGI (MALME-3M melanoma): > 100 µM
- TGI (NCI-H226 lung): > 100 µM
- TGI (NCI-H23 lung): > 100 µM
- TGI (NCI-H460 lung): > 100 µM
- TGI (NCI-H522 lung): > 100 µM
- TGI (OVCAR-3 ovarian): > 100 µM
- TGI (OVCAR-4 ovarian): > 100 µM
- TGI (OVCAR-5 ovarian): > 100 µM
- TGI (OVCAR-8 ovarian): > 100 µM
- TGI (RXF 393 renal): > 100 µM
- TGI (RXF-631 renal): > 100 µM
- TGI (SF-268 CNS): > 100 µM
- TGI (SF-295 CNS): > 100 µM
- TGI (SF-539 CNS): > 100 µM
- TGI (SK-MEL-2 melanoma): > 100 µM
- TGI (SK-MEL-28 melanoma): > 100 µM
- TGI (SK-MEL-5 melanoma): > 100 µM
- TGI (SK-OV-3 ovarian): > 100 µM
- TGI (SN12C renal): > 100 µM
- TGI (SNB-19 CNS): > 100 µM
- TGI (SNB-75 CNS): > 100 µM
- TGI (SNB-78 CNS): > 100 µM
- TGI (SW-620 colon): > 100 µM
- TGI (TK-10 renal): > 100 µM
- TGI (U251 CNS): > 100 µM
- TGI (UACC-257 melanoma): > 100 µM
- TGI (UACC-62 melanoma): > 100 µM
- TGI (UO-31 renal): > 100 µM
- TGI (XF 498 CNS): > 100 µM
